Reference: patent publication US20250332139A1, “PS[…] AND THEIR USE FOR TREATING […] AND NE[…] DISORDERS” (Transcend Therapeutics, Inc., priority 2021, published 2025)
pKi: −log10 of the molar value.

Key:
SERT = SERT (Rattus norvegicus, UniProt P31652); assay: [3H]5HT uptake saturation curves with or without methylone; type: biochemical
From the text: If high concentrations of [^3H] […] Three hot saturation curves were run with the [^3H]

[1] = Excipient compatibility study; type: physicochemical; details: 2 Week 40° C./75% RH, closed vial
Experimental: Analyses were conducted at t=0, 2, 4 and 8 weeks for appearance, assay, and related substances for samples stored in closed vials at 25° C./60% RH and 40° C./75% RH.
Excipient Compatibility Sample Mixtures: The excipients and API were dispensed individually by weight into 20 mL clear borosilicate (type I) glass vials to fill the appropriate weights as listed in Table 12. Table 12 lists mixtures of API with varied excipients and a stand-alone control sample of API alone. Each excipient mixture sample preparation was conducted using a clean spatula to mix the vial ingredients for 30-60 seconds. Each vial was properly labeled with the description and storage conditions. One vial was used for testing at the initial (t=0) time point. Three vials, closed, were placed at each storage condition to allow sampling at each time point and one vial, closed, was placed at each storage condition for overage.

[2] = target: norepinephrine transporter (NET) (Rattus norvegicus, UniProt Q63380); assay: Competitive radioligand binding, [3H]nisoxetine, rat brain lysates
Chain of norepinephrine transporter (NET) (Q63380 1-617): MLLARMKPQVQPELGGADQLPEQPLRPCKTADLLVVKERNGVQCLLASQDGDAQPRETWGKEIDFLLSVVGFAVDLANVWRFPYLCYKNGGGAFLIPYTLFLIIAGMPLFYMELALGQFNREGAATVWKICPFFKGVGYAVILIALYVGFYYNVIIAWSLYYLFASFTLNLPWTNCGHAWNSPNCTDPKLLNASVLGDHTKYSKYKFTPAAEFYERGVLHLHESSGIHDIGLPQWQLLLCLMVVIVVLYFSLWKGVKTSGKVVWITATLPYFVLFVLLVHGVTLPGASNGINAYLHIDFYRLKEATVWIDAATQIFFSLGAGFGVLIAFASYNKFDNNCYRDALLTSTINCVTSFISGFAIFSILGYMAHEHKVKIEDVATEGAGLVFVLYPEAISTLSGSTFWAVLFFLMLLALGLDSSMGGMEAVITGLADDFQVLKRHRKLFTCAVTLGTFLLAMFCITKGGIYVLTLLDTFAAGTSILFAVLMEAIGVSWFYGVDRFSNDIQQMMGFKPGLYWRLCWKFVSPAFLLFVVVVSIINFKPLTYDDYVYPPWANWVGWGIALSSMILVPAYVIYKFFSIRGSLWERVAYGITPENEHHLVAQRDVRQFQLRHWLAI
Experimental: Radioligands used were: [^3H] Citalopram (PerkinElmer NET1039250UC); [^3H] Nisoxetine (PerkinElmer NET1084250UC); [^3H] WIN35428 (PerkinElmer NET1033250UC). […] Rat brains were dissected and tissue was homogenized in cold lysis buffer, centrifged at 100×g for 2 min and the supernatant was placed in a fresh tube. Supernatant was centrifuged at 13,000×g for 10 min at 4° C. to re-pellet the cell lysate. The pellet was resuspended in fresh wash buffer (50 mM Tris-HCl; 5 mM MgCl2; 5 mM EDTA) and centrifuged a third time. The pellet was then resuspended in wash buffer containing 10% sucrose as a cryoprotectant, divided into aliquots (0.3 mL) and stored at −80° C. A sample of the homogenate was analyzed for protein content using the SIGMA® BCA assay. On the day of the assay, the membrane preparation was thawed, and the pellet resuspended in final assay buffer. […] To each well was added 150 μL membranes, 50 μL of non-specific compound or buffer and 50 μL radioligand solution in buffer. […] Ki was subsequently calculated using the Cheng-Prusoff equation.

participants with PTSD = assay: IMPACT-1 open-label study (Part A); type: in vivo, human; parameters: reduction in Anxiety Sub-Scale of MADRS: concentration or dose not given beside the values
Experimental: The purpose of this pilot study is to evaluate the safety, tolerability, and efficacy of methylone in adult participants with PTSD. The study is conducted in two parts. Part A is open-label enrolling up to 15 evaluable participants with PTSD. After completion of Part A, enrollment will begin for Part B, which is double-blind, placebo-controlled and enrolling up to 64 evaluable participants with PTSD.
Brief Summary: This is a two-part study to assess methylone for the management of the symptoms of PTSD. Part A is an open-label, non-controlled assessment in up to 15 evaluable participants with PTSD to assess early safety and efficacy and to confirm procedures included in the blinded portion (Part B) of the study. After completion of Part A, enrollment for Part B will begin in up to 64 participants. Part B is identical to Part A with the exception of the inclusion of a placebo arm in Part B.
For each participant in Parts A and B, the study consists of: • Screening Period (Day-28 to Day-4): Informed consent, eligibility assessment, and enrolment of eligible participants. • Baseline/Preparatory Session (Day-3 to Day-1): Baseline assessments, confirmation of eligibility, and a preparatory psychoeducation session leading to enrolment confirmation. • Treatment Period (Day 1 to Day 24): Four weekly dose sessions, with associated remote sessions. The dose sessions last at least 8 hours, or until all effects (physical and psychological) have resolved (whichever is longer). Each dose session is followed by a safety phone call 1 day after dosing and efficacy assessments 2 days after dosing. Each dosing period is video recorded for quality and training purposes. The videos may be reviewed to ensure the Mentor is adhering to the Mentor training. • Follow-Up Period (Day 29 to Day 64): Follow-Up visits for safety and efficacy occur at 1, 2, 3 and 6 weeks post-final study drug administration. In addition, there are Mentor-Led Reflection Sessions 1, 2 and 3 weeks post-final study drug administration. Participants are contacted via telephone on Day 57 (±2 days) for Follow-Up. • Discontinuations: Participants who discontinue prematurely are asked to return for an extra visit to duplicate the 6-week end-of-study (EOS) visit.
Each dose was given as an initial dose, followed by a second dose 90 minutes later. During the dosing session, participants were accompanied by a trained Mentor who provided non-directive support. After the 4-week treatment period, participants attended follow-up visits at 1, 2, 3, and 6 weeks following the last dose. Safety was assessed via standard measures including adverse events. PTSD symptoms were assessed via Clinician-Administered PTSD Scale for DSM-5 (CAPS-5), depressive symptoms were assessed via Montgomery-Åsberg Depression Rating Scale (MADRS). Anti-anxiety efficacy was evaluated using the Anxiety Sub-Scale of MADRS, namely, questions (Items 3, 4, 5, 6) that address four anxiety items (inner tension, reduced sleep, reduced appetite, concentration difficulties) Changes from baseline were analyzed using a paired t-test p-values.
Methods: The IMPACT-1 study is a multi-center, two-part clinical trial. Part A has completed and was an open-label evaluation involving 14 participants with PTSD. Eligible participants are adults with severe PTSD (CAPS-5 ≥35) who had failed at least 1 prior treatment (pharmacotherapy and/or psychotherapy) for PTSD. […] Throughout each dosing session, participants were provided non-directive psychological support by a trained mental health practitioner. Following the 4-week treatment period, participants were followed for an additional 6 weeks to evaluate the durability of the therapeutic effect. PTSD symptom improvement was evaluated on the CAPS-5. Functioning was assessed via the 3 domains (school/work, family life, social life) of the Sheehan Disability Scale (SDS). Global improvement was measured by the CGI-I. Safety was assessed by monitoring adverse events, vital signs, and C-SSRS. […]

Chain of SERT (P31652 whole entry): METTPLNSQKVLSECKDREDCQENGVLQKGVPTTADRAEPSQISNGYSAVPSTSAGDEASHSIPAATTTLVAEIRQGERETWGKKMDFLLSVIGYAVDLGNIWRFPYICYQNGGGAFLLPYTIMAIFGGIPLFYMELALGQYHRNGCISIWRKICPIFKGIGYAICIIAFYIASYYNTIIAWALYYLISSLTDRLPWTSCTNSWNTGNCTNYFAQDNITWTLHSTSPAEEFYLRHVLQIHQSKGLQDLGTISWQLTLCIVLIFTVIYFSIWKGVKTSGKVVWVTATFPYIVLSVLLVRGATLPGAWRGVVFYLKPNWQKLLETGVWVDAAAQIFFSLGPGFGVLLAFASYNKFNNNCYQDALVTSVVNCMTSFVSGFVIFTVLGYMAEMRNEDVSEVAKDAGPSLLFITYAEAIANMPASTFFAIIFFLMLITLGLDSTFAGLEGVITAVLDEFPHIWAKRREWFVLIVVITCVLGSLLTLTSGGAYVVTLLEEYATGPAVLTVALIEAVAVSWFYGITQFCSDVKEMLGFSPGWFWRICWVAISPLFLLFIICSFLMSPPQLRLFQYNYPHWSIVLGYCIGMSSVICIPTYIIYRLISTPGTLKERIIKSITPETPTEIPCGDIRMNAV

CNC(C)C(=O)c1ccc2c(c1)OCO2 (centres unmarked) [methylone, 3,4-methylenedioxy-N-methylcathinone]
effect on Bmax of [3H]5HT uptake (SERT): no decrease in Bmax
type of interaction at the SERT (SERT; two concentrations of methylone): competitive
Assay (% Recovery) [1]: 99.0 % Recovery
pKi [2]: 5.94
decrease in CAPS-5 score (participants with PTSD; Day 3): 8.4 points
decrease in MADRS score (participants with PTSD; Day 3): 8.2 points
reduction in Anxiety Sub-Scale of MADRS (participants with PTSD; Day 3): 20%
reduction in Anxiety Sub-Scale of MADRS (participants with PTSD; Day 10): 43%
reduction in Anxiety Sub-Scale of MADRS (participants with PTSD; Day 17): 50%
reduction in Anxiety Sub-Scale of MADRS (participants with PTSD; Day 24): 57%
reduction in Anxiety Sub-Scale of MADRS (participants with PTSD; Day 29): 56%
reduction in Anxiety Sub-Scale of MADRS (participants with PTSD; Day 36): 66%
reduction in Anxiety Sub-Scale of MADRS (participants with PTSD; Day 43): 64%
SDS Family Life score, mean (SD) (participants with PTSD; Day 64): 3.1 (3.45)
SDS Mean Overall score, mean (SD) (participants with PTSD; Day 64): 3.1 (3.12)
SDS Social Life score, mean (SD) (participants with PTSD; Day 64): 3.2 (3.39)
SDS Work/School score, mean (SD) (participants with PTSD; Day 64): 3.3 (3.78)
reduction in Anxiety Sub-Scale of MADRS (participants with PTSD; Day 64): 66%
PSQI total score change (participants with PTSD; end of study (6 weeks after the last dose)): −4.0 points
drug-related SAEs (participants with PTSD; human, in vivo, oral, 4 weeks): No drug-related SAEs occurred
